# Results taken from patent publication US12098145B2 (Libra Therapeutics, Inc., priority 2022, dated 2024).
# Like-named read-outs stand apart in the source and are kept apart here.
# Legend:
# TRPML1 = target: T1, TRPML1 (Homo sapiens, UniProt Q9GZU1); experiment: Cellular TRPML1 assay (FLIPR, GCaMP6f calcium read-out); format: cell-based
# T1 construct: expressed in transfected cells; host or cells: HEK T-REx cells stably expressing GCaMP6f and TRPML1
# In short: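 Read-out is GCaMP6f fluorescence over 300 s after compound addition in Ca2+-free Tyrode's buffer, final DMSO 0.5%, on FLIPR Tetra. Cells are HEK T-REx stably co-expressing the indicator and TRPML1, plated 24 h earlier in Optimem + 0.5% FBS and pre-incubated ~10 min at room temperature.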
# TFEB = TFEB translocation assay (TFEB reporter in U2OS cells, imaging); format: cell-based; conditions: Homo sapiens; U2OS cell line with TFEB reporter, 2 hours incubation, nucleus to cytoplasm ratio, normalized to Torin-1; read-out: TFEB Translocation pEC50 (converted)
# Method: Example B: TFEB Translocation Assay
# Reporter TFEB: the reporter is fused to a sequence of monomeric red fluorescent protein.
# The reporter TFEB have been stably expressed in U2OS cell line and used as read-out.
# Experiments were performed in 384 MTP well format. Cells were seeded in 384-w at a density of 4000 cells/well in 20 μl/well complete growth medium without antibiotics. Twenty-four hours later, cells were treated with compounds and incubated for further 2 hours. Then the cells were imaged and assayed for the response to various compounds using the reporter for TFEB expressed in the cells as readout.
# The experiments were performed in a 384-well format according to the following procedure: • 24 h after seeding, cell culture medium was carefully removed and replaced with 20 μl of Opti-MEM (30′ incubation at 37° C. before compound addition) • Then, cells were incubated with compounds diluted in Opti-MEM+0.015% Tween 80 at the desired concentration, with the reference molecule (agonist) Torin-1 at a top concentration of 1 μM (max signal), and with the other reference molecule (agonist) MLSA-5 at top concentration of 20 μM for 2 hours at 37° C. and 5% CO2. The final percentage of DMSO was 0.5% in all the conditions. • Staining of the nuclei was obtained by incubating the cells with 24 μM/well of Hoechst 3342 in standard Tyrode's buffer for 15 min at RT • Then the cells were fixed with PFA 4% for 30 min at RT • After three washes with standard Tyrode's buffer, samples were acquired by recording two fluorescence emission channels (DS-red and blue) at 20× magnification and with at least 3 fields of view per well in an Operetta CLS microscope (PerkinElmer). • Image analysis was performed by using Harmony software (PerkinElmer). The image analysis involved the following steps: flat-field illumination correction, nuclei segmentation, cytoplasm segmentation and calculation of intensity fluorescence in the cytosol and nuclei compartments. Measurements of signal intensity ratio (nucleus to cytoplasm) was used to obtain information on the effects of compounds on the TFEB translocation. • Data from image analysis measurements were finally loaded and analyzed for normalization and fitting procedures in Genedata Screener© software. Data Analysis
# Feature: Mean translocation ratio (mean/well)
# Data normalization: Stimulator—Neutral control
# The GeneData Screener method we have used, normalizes the median of the Stimulator control wells (Torin-1) to 100% and the median of the Neutral control wells (DMSO) to 0% Activity[%]=100*(x−<Min>)/(<“Max”>−<Min>)
# [1] = HEKT-REx/GCaMP6f/TRPML1 cells, FLIPR TETRA, kinetic response over 300 seconds, read-out: TRPML1 FLIPR pEC50 (converted)
# T1 sequence (Q9GZU1 whole entry): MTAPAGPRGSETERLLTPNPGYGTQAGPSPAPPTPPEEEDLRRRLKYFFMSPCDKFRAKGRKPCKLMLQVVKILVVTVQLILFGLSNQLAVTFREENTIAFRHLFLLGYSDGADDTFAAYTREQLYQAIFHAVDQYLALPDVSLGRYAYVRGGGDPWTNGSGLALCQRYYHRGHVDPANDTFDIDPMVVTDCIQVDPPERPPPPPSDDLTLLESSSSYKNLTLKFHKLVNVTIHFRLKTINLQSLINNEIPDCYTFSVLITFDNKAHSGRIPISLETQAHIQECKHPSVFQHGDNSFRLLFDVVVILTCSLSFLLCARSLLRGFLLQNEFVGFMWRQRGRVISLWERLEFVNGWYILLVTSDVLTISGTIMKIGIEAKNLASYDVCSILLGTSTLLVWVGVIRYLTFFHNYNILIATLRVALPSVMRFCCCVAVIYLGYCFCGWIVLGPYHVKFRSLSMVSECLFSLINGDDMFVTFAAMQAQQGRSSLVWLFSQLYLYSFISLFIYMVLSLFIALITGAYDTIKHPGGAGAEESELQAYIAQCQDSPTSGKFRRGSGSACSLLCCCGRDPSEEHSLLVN
EC50 (TRPML1; [1]),Compound,EC50 (TFEB),EC50 (TRPML1)
1000 to 10000 nM,"O=C(Nc1ccc(N2CCCCC2)c(F)c1)c1nc(N2CC3(C2)CC(F)(F)C3)oc1CC(F)(F)F [Example 30, 2-{6,6-difluoro-2-azaspiro[3.3]heptan-2-yl}-N-[3-fluoro-4-(piperidin-1-yl)phenyl]-5-(2,2,2-trifluoroethyl)oxazole-4-carboxamide]",1000 to 10000 nM,
1000 to 10000 nM,"O=C(Nc1ccc(N2CCCCC2)c(F)c1)c1nc(N2CCC3(CCOC3)C2)oc1CC(F)(F)F (stereo not drawn) [Example 31, N-(3-fluoro-4-(piperidin-1-yl)phenyl)-2-(2-oxa-7-azaspiro[4.4]nonan-7-yl)-5-(2,2,2-trifluoroethyl)oxazole-4-carboxamide]",1000 to 10000 nM,
1000 to 10000 nM,"O=C(Nc1ccc(N2CCCCC2)c(F)c1)c1nc(N2CCCC2)oc1CC(F)(F)F [Example 32, N-(3-fluoro-4-(piperidin-1-yl)phenyl)-2-(pyrrolidin-1-yl)-5-(2,2,2-trifluoroethyl)oxazole-4-carboxamide]",1000 to 10000 nM,
10 to 1000 nM,"O=C(Nc1ccc(N2CCCCC2)c(F)c1)c1nc(N2CCC3(COC3)C2)oc1CC(F)(F)F [Example 33, N-(3-fluoro-4-(piperidin-1-yl)phenyl)-2-(2-oxa-6-azaspiro[3.4]octan-6-yl)-5-(2,2,2-trifluoroethyl)oxazole-4-carboxamide]",1000 to 10000 nM,
10 to 1000 nM,"O=C(Nc1cc(F)c(OC2CC3C[C@H]3C2)c(F)c1)c1nc(N2CC3CCOC3C2)oc1CC(F)(F)F (stereo partly drawn) [Example 36, N-(4-{cis-bicyclo[3.1.0]hexan-3-yloxy}-3,5-difluorophenyl)-2-{hexahydro-5H-furo[2,3-c]pyrrol-5-yl}-5-(2,2,2-trifluoroethyl)oxazole-4-carboxamide]",10 to 1000 nM,
10 to 1000 nM,O=C(Nc1cc(F)c(OC2CC3C[C@H]3C2)c(F)c1)c1nc(N2CCC3(CC3)C2)oc1CC(F)(F)F (stereo partly drawn) [Example 38],10 to 1000 nM,
10 to 1000 nM,"O=C(Nc1cc(F)c(O[C@@H]2C[C@@H]3C[C@@H]3C2)c(F)c1)c1nc(N2CCCC2)oc1CC(F)(F)F [Example 39, N-(4-(cis-bicyclo[3.1.0]hexan-3-yloxy)-3,5-difluorophenyl)-2-(pyrrolidin-1-yl)-5-(2,2,2-trifluoroethyl)oxazole-4-carboxamide]",10 to 1000 nM,
1000 to 10000 nM,"O=C(Nc1ccc(OC2CCOC2)c(F)c1)c1nc(N2CCCC2)oc1CC(F)(F)F (stereo not drawn) [Example 47, N-[3-fluoro-4-(oxolan-3-yloxy)phenyl]-2-(pyrrolidin-1-yl)-5-(2,2,2-trifluoroethyl)oxazol-4-carboxamide]",1000 to 10000 nM,
1000 to 10000 nM,"O=C(Nc1ccc(OC2CCCC2)c(F)c1)c1nc(N2CC3(C2)CC(F)(F)C3)oc1CC(F)(F)F [Example 48, N-[4-(cyclopentyloxy)-3-fluorophenyl]-2-{6,6-difluoro-2-azaspiro[3.3]heptan-2-yl}-5-(2,2,2-trifluoroethyl)oxazole-4-carboxamide]",10 to 1000 nM,
1000 to 10000 nM,"CC1CCC(Oc2ccc(NC(=O)c3nc(N4CCCC4)oc3CC(F)(F)F)cc2F)C1 (stereo not drawn) [Example 50, N-(3-fluoro-4-((3-methylcyclopentyl)oxy)phenyl)-2-(pyrrolidin-1-yl)-5-(2,2,2-trifluoroethyl)oxazole-4-carboxamide]",1000 to 10000 nM,
1000 to 10000 nM,"CC1CCCN1c1nc(C(=O)Nc2ccc(OC3CCCC3)c(F)c2)c(CC(F)(F)F)o1 (stereo not drawn) [Example 54, N-(4-(cyclopentyloxy)-3-fluorophenyl)-2-(2-methylpyrrolidin-1-yl)-5-(2,2,2-trifluoroethyl)oxazole-4-carboxamide]",10000 to 100000 nM,
1000 to 10000 nM,"CC1(C)CCCC1Oc1ccc(NC(=O)c2nc(N3CCCC3)oc2CC(F)(F)F)cc1F (stereo not drawn) [Example 55, N-(4-((2,2-dimethylcyclopentyl)oxy)-3-fluorophenyl)-2-(pyrrolidin-1-yl)-5-(2,2,2-trifluoroethyl)oxazole-4-carboxamide]",1000 to 10000 nM,
1000 to 10000 nM,"O=C(Nc1ccc(OC2CCCC2)c(F)c1)c1nc(N2CCC3(COC3)C2)oc1CC(F)(F)F [Example 64, N-(4-(cyclopentyloxy)-3-fluorophenyl)-2-(2-oxa-6-azaspiro[3.4]octan-6-yl)-5-(2,2,2-trifluoroethyl)oxazole-4-carboxamide]",1000 to 10000 nM,
10 to 1000 nM,"O=C(Nc1ccc(OC2CCCCC2(F)F)c(F)c1)c1nc(N2CCC3(COC3)C2)oc1CC(F)(F)F (stereo not drawn) [Example 68, N-(4-((2,2-difluorocyclohexyl)oxy)-3-fluorophenyl)-2-(2-oxa-6-azaspiro[3.4]octan-6-yl)-5-(2,2,2-trifluoroethyl)oxazole-4-carboxamide]",10 to 1000 nM,
10 to 1000 nM,"O=C(Nc1ccc(O[C@@H]2C[C@@H]3C[C@@H]3C2)c(F)c1)c1nc(N2CCC3(COC3)C2)oc1CC(F)(F)F [Example 73, N-(4-{cis-bicyclo[3.1.0]hexan-3-yloxy}-3-fluorophenyl)-2-{2-oxa-6-azaspiro[3.4]octan-6-yl}-5-(2,2,2-trifluoroethyl)oxazole-4-carboxamide]",10 to 1000 nM,
10 to 1000 nM,"O=C(Nc1ccc(O[C@@H]2C[C@@H]3C[C@@H]3C2)c(F)c1)c1nc(N2CCCC2)oc1CC(F)(F)F [Example 74, N-(4-{cis-bicyclo[3.1.0]hexan-3-yloxy}-3-fluorophenyl)-2-(pyrrolidin-1-yl)-5-(2,2,2-trifluoroethyl)oxazole-4-carboxamide]",10 to 1000 nM,
10 to 1000 nM,"O=C(Nc1ccc(O[C@@H]2C[C@@H]3C[C@@H]3C2)c(F)c1)c1nc(N2CCC3(CC3)C2)oc1CC(F)(F)F [Example 75, 2-{5-azaspiro[2.4]heptan-5-yl}-N-(4-{cis-bicyclo[3.1.0]hexan-3-yloxy}-3-fluorophenyl)-5-(2,2,2-trifluoroethyl)oxazole-4-carboxamide]",10 to 1000 nM,
10 to 1000 nM,"O=C(Nc1ccc(OC2CCCCC2(F)F)c(F)c1)c1nc(N2CCCC2)oc1CC(F)(F)F (stereo not drawn) [Example 76, N-{4-[(2,2-difluorocyclohexyl)oxy]-3-fluorophenyl}-2-(pyrrolidin-1-yl)-5-(2,2,2-trifluoroethyl)oxazole-4-carboxamide]",10 to 1000 nM,
1000 to 10000 nM,"O=C(Nc1ccc(N2CCC(F)(F)CC2)c(F)c1)c1nc(N2CC3(C2)CC(F)(F)C3)oc1CC(F)(F)F [Example 77, 2-{6,6-difluoro-2-azaspiro[3.3]heptan-2-yl}-N-[4-(4,4-difluoropiperidin-1-yl)-3-fluorophenyl]-5-(2,2,2-trifluoroethyl)oxazole-4-carboxamide]",1000 to 10000 nM,
1000 to 10000 nM,"O=C(Nc1ccc(N2CCCCC2)c(C(F)(F)F)c1)c1nc(N2CC3(C2)CC(F)(F)C3)oc1CC(F)(F)F [Example 78, 2-{6,6-difluoro-2-azaspiro[3.3]heptan-2-yl}-N-[4-(piperidin-1-yl)-3-(trifluoromethyl)phenyl]-5-(2,2,2-trifluoroethyl)oxazole-4-carboxamide]",1000 to 10000 nM,
1000 to 10000 nM,"CN(c1ccc(NC(=O)c2nc(N3CCCC3)oc2CC(F)(F)F)cc1F)C1CCCC1(F)F (stereo not drawn) [Example 82, N-{4-[(2,2-difluorocyclopentyl)(methyl)amino]-3-fluorophenyl}-2-(pyrrolidin-1-yl)-5-(2,2,2-trifluoroethyl)oxazole-4-carboxamide]",10 to 1000 nM,
,"O=C(Nc1ccc(N2C3CCCC2C3)c(F)c1)c1nc(N2CCCC2)oc1CC(F)(F)F [Example 83, N-(4-{6-azabicyclo[3.1.1]heptan-6-yl}-3-fluorophenyl)-2-(pyrrolidin-1-yl)-5-(2,2,2-trifluoroethyl)oxazole-4-carboxamide]",10 to 1000 nM,10 to 1000 nM
1000 to 10000 nM,"O=C(Nc1ccc(N2CCCCC2)c(O)c1)c1nc(N2CCCC2)oc1CC(F)(F)F [Example 84, N-(3-hydroxy-4-(piperidin-1-yl)phenyl)-2-(pyrrolidin-1-yl)-5-(2,2,2-trifluoroethyl)oxazole-4-carboxamide]",10000 to 100000 nM,
1000 to 10000 nM,"Cc1oc(N2CCC3(COC3)C2)nc1C(=O)Nc1ccc(N2CCCCC2)c(F)c1 [Example 90, N-(3-fluoro-4-(piperidin-1-yl)phenyl)-5-methyl-2-(2-oxa-6-azaspiro[3.4]octan-6-yl)oxazole-4-carboxamide]",1000 to 10000 nM,
